Measured values taken from patent US9457033B2, “Steroid alkaloids and uses thereof as antimicrobial agents against electron transport-deficient microbes and as potentiators for antimicrobial agents against pathogenic bacteria” (priority 2011, dated 2016).
≈ marks a conversion by molar mass, not a printed value. Like-named read-outs stand apart in the source and are kept apart here. Marks after values point to notes of the source that are not given here.

How the values were obtained:
[1] = tested on: S. aureus CF1A-L (normal strain); test: MIC, microdilution in BHI 48 h; type: cell-based, Staphylococcus aureus; settings: Staphylococcus aureus; CF1A-L, normal strain; read-out: MIC
S. aureus SCV CF07-S = test: MIC, microdilution in BHI 48 h (Examples 1, 3); type: cell-based, Staphylococcus aureus
S. aureus ATCC 29213 = test: MIC, microdilution in BHI 48 h (Examples 1, 3); type: cell-based, Staphylococcus aureus
normal strain CF07-L = test: Broth growth with gentamicin or tomatidine, visually evaluated (FIG. 5A); settings: gentamicin at 4 μg/ml or tomatidine at 0.12 μg/ml alone, 48 h
S. aureus SCV CF1D-S = test: MIC, microdilution in BHI 48 h; type: cell-based, Staphylococcus aureus; settings: Staphylococcus aureus, SCVCF1DS
[2] = tested on: S. aureus Newbould (normal strain); test: MIC, microdilution in BHI 48 h; type: cell-based, Staphylococcus aureus; settings: Staphylococcus aureus; Newbould, normal strain; read-out: MIC
[3] = tested on: S. aureus CF07-L (normal strain); test: MIC, microdilution in BHI 48 h (Examples 1, 3); type: cell-based, Staphylococcus aureus
[4] = tested on: S. aureus SCV NewbouldΔhemB; test: MIC, microdilution in BHI 48 h; type: cell-based, Staphylococcus aureus; settings: Staphylococcus aureus
S. aureus SCV CF6A-S = test: microbe, parasite or virus in culture; type: cell-based; settings: Staphylococcus aureus, SCVCF6AS; Tomatidine (50 μg); thymidine auxotrophy; 24 hours at 37° C. with O2; DMSO control 0; read-out: Diameter of inhibition zone
SCV strain CF07-S = test: Time-kill experiment (FIG. 1C); type: cell-based, Staphylococcus aureus; settings: tomatidine at 0.25 μg/ml (2×MIC)
Experimental: (225 RPM), bacteria were sampled, serially diluted and plated on tryptic soy agar (TSA) for colony-forming unit (CFU) determinations (i.e., viable bacterial counts). Plates were incubated for 24 or 48 h at 35° C. for normal and SCV strains, respectively. The antibacterial activities of tomatidine and control antibiotics (erythromycin (a bacteriostatic macrolide) and ciprofloxacin (a bactericidal fluoroquinolone) against the normal CF07-L strain and the SCV CF07-S as a function of time are presented in FIGS. 1B and 1C, respectively. The antibacterial activity of tomatine against the SCV strain was also evaluated (TN in FIG. 1C).

[5] = tested on: S. aureus ATCC 29213 in co-culture with P. aeruginosa PA14; test: Viability in co-culture with P. aeruginosa PA14, CAMHB; type: cell-based, Staphylococcus aureus; settings: for Viability of S. aureus: SA + PA + TO at 8 μg/ml
Excerpt: Bacteria were sampled, serially diluted and plated on tryptic soy agar for CFU determinations. […] Mannitol-salt agar plates were used to selectively evaluate S. aureus CFU when in co-culture with P. aeruginosa.

In the case of C[C@H]1CC[C@]2(NC1)O[C@H]1C[C@H]3[C@@H]4CC[C@H]5C[C@@H](O)CC[C@]5(C)[C@H]4CC[C@]3(C)[C@H]1[C@@H]2C [Tomatidine, tomatidine], the MIC [1] is reported as > 16 µg/mL, the MIC (S. aureus SCV CF07-S; CF07-S + HQNO at 20 μg/ml) is reported as 0.12 µg/mL and the MIC (S. aureus SCV CF07-S; CF07-S, without HQNO) is reported as 0.12 µg/mL (≈ 0.289 µM). For the same molecule, the MIC (S. aureus SCV CF07-S; Staphylococcus aureus, SCVCF07S) was 0.12 µg/mL (≈ 0.289 µM), the MIC (S. aureus ATCC 29213; ATCC 29213 + HQNO at 20 μg/ml) was 0.12 to 0.25 µg/mL and the MIC (S. aureus ATCC 29213; ATCC 29213, without HQNO) was >16 µg/mL. The MIC (S. aureus ATCC 29213; ATCC 29213 in MHBCA) was >16 µg/mL, the MIC (S. aureus ATCC 29213; Staphylococcus aureus, ATCC29213, ATCC 29213 in BHI, read-out: MIC) was > 16 µg/mL and the MIC (S. aureus ATCC 29213; Staphylococcus aureus, ATCC29213, ATCC 29213, 1 μg/ml CCCP, read-out: MIC in presence of CCCP) was 0.12 µg/mL. For the same molecule, the “growth, visually evaluated” value (normal strain CF07-L) was “does not”, the MIC (S. aureus SCV CF1D-S) was 0.12 µg/mL (≈ 0.289 µM) and the MIC [2] was > 16 µg/mL. For the same molecule, the MIC ([3]; CF07-L + HQNO at 20 μg/ml) was 0.5 µg/mL, the MIC ([3]; CF07-L, without HQNO) was >16 µg/mL and the MIC ([3]; Staphylococcus aureus, CF07-L, normal strain, read-out: MIC) was > 16 µg/mL. The MIC [4] was 0.12 µg/mL (≈ 0.289 µM), the zone of inhibition at 50 µg/disc (S. aureus SCV CF6A-S) was 23 mm and the “time-kill effect on growth and viability” value (SCV strain CF07-S) was “induced bacteriostasis”. For the same molecule, the “Viability of S. aureus” value ([5]; 0 h) was 5.4 ± 0.1 Log10 CFU/ml, the “Viability of S. aureus” value ([5]; 24 h) was 2 ± 1 ^b Log10 CFU/ml and the “type of antibacterial effect” value ([5]; in co-culture with P. aeruginosa, tomatidine 8 μg/ml) was “bactericidal”.
